Results published in patent US20100105641A1, “Oral Contraceptive Spray” (priority 2006, published 2010).
Blank lines part the entries; values can stand above or below the compound they belong to.

Assays:
[1] = Experimental: Solutions were prepared essentially according to the procedure as described in Example 1. The solubility of each one of the active ingredients desogestrel, 3-β-hydroxydesogestrel, 3-keto desogestrel and ethinyl estradiol in these solutions was tested.
[2] = human, in vivo
Experimental: Sixteen healthy female subjects were treated with 0.1 ml of the oral spray as described in Example 1 or with Marvelon® tablets (150 μg desogestrel, 30 μg ethinyl estradiol) in a cross over design. The spray was administered sublingually. Marvelon® was ingested. Serum concentration versus time profiles were obtained for etonogestrel and plasma concentration versus time profiles were obtained for ethinyl estradiol. FIGS. 2, 3, 4 and 5 show the average values of the serum/plasma concentrations versus time profiles.
This leads to the conclusion that a lower dose of either etonogestrel, or ethinyl estradiol, or both is possible for oral mucosal administration.

[3] = Cross-over study in sixteen healthy female subjects: sublingual oral spray (75 μg etonogestrel) vs ingested Cerazette tablets, serum concentration versus time profiles; format: in vivo, human; conditions: FIGS. 6 and 7; 75 μg etonogestrel spray vs Cerazette tablet
Experimental: Sixteen healthy female subjects were treated with 0.1 ml of oral spray comprising the liquid as depicted in table 6 to administer 75 μg etonogestrel, or with Cerazette® tablets (75 μg desogestrel) in a cross over design. The spray has been administered sublingually. Cerazette® has been ingested. Serum concentration versus time profiles were obtained for etonogestrel.
This leads to the conclusion that a lower dose of either etonogestrel is possible for oral mucosal administration to achieve a similar pharmacological effect.

[4] = exposure of etonogestrel after oral ingestion as its prodrug desogestrel; cited from earlier work

Compound: C#C[C@]1(O)CC[C@H]2[C@@H]3CCC4=C[C@@H](O)CC[C@@H]4[C@H]3C(=C)C[C@@]21CC [3-β-Hydroxy-desogestrel, 3-β-hydroxydesogestrel]
- Solubility in Liquid 1 [1]: ≧8.8 mg/mL
- Solubility in Liquid 2 [1]: ≧7.0 mg/mL
- Solubility in Liquid 3 [1]: ≧6.1 mg/mL
- Solubility in Liquid 4 [1]: ≧6.9 mg/mL
- Solubility in Liquid 5 [1]: ≧8.7 mg/mL

- levels of ethinyl estradiol in plasma, oral mucosal administration compared to oral ingestion of equivalent amount using a tablet [2]: much higher levels
Compound: C#C[C@]1(O)CC[C@H]2[C@@H]3CCc4cc(O)ccc4[C@H]3CC[C@@]21C [Ethinyl Estradiol, ethinyl estradiol]

- levels of etonogestrel in serum, oral mucosal administration compared to oral ingestion of equivalent amount of desogestrel using a tablet [2]: much higher levels
- levels of etonogestrel in serum, oral mucosal administration compared to oral ingestion of an equivalent amount of desogestrel using a tablet [3]: much higher levels
Compound: C#C[C@]1(O)CC[C@H]2[C@@H]3CCC4=CC(=O)CC[C@@H]4[C@H]3C(=C)C[C@@]21CC [Etonogestrel, 13-ethyl-11methylene-17β-hydroxy-18,19-dinor-17α-pregnen-3-one]
- oral bioavailability [4]: about 80%
